In US6936610B2, “Heterocyclic derivatives” (AstraZeneca UK Limited, priority 1996, dated 2005):
Structures can show the parent of a compound that is named as a salt.

Row | melting point | SMILES
1 | 175 to 176 °C | O=C(c1ccc(-c2ccncc2)cc1)N1CCN(S(=O)(=O)c2ccc3cc(Cl)ccc3c2)CC1 (as salt: trifluoroacetate) [Example 7, 1-(6-chloronaphth-2-ylsulphonyl)4-[4-(4-pyridyl)benzoyl]piperazine]
2 | 204 to 205 °C | Cc1cc(-c2ccc(C(=O)N3CCN(S(=O)(=O)c4ccc5cc(Br)ccc5c4)CC3)cc2)ccn1 [Example 8, 1-(6-bromonaphth-2-ylsulphonyl)-4-[4-(2-methyl-4-pyridyl)benzoyl]piperazine]
3 | 128 to 130 °C | O=C(c1ccc(-c2ccnnc2)cc1)N1CCN(S(=O)(=O)c2ccc3cc(Br)ccc3c2)CC1 [Example 9, 1-(6-bromonaphth-2-ylsulphonyl)4-[4-(4-pyridazinyl)benzoyl]piperazine]
